Reference: patent US8927715B2, “Inhibitors of 11β-hydroxysteroid dehydrogenase type 1” (Vitae Pharmaceuticals, Inc., priority 2006, dated 2015)

Legend:
human 11β-HSD1 [1] = target: T1, human 11β-HSD1 (Homo sapiens, UniProt P28845); test: Inhibition of a microsomal preparation of 11β-HSD1, SPA (Biological Test Example 2); type: biochemical; parameters: expressed in transfected cells; host or cells: CHO cells (microsomes); conditions: read-out: Biological Test Example 2 (IC50 class)
Outline: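 Microsomes from CHO cells overexpressing human 11β-HSD1 (10-20 μg/ml total protein) added after 10 min compound pre-incubation, then 90 min at room temperature. Stopped with 18β-glycyrrhetinic acid (10 nM), protein A SPA beads and anti-cortisol antibody; [3H]cortisol measured by SPA after 120 min.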
Target sequence in this assay (P28845 whole entry): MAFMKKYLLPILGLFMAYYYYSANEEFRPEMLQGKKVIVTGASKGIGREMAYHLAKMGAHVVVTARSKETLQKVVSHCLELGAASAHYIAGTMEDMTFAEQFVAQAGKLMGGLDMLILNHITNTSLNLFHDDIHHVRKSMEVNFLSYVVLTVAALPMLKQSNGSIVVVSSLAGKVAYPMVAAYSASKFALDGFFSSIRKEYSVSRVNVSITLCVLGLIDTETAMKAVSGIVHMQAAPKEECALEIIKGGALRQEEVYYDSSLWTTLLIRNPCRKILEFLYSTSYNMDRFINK

human 11β-HSD1 [2] = target: T1, human 11β-HSD1; test: Scintillation Proximity Assay: inhibition of purified 11β-HSD1 (Biological Test Example 1); type: biochemical; parameters: made in house; host or cells: E. coli; conditions: purified recombinant 11β-HSD1, SPA; read-out: Biological Test Example 1 (IC50 class)
Description: The inhibition of purified 11β-HSD1 by compounds of Formula I or I* is measured using a Scintillation Proximity Assay. All reactions are carried out at room temperature in 96 well flexible Microbeta reaction plates. First, 1 μL of a 0.1 mM solution of a compound of Formula I or I* is mixed in DMSO diluted in half-log increments (8 points) starting at 1 μM final concentration. To this dot is added 50 μL of substrate solution (50 mM HEPES, pH 7.4, 100 mM KCl, 5 mM NaCl, 2 mM MgCl2 containing 20 μM ^3H cortisone, 1 mM NADPH). […] The reaction is then incubated for 90 minutes, and stopped by adding 50 μl of SPA bead mix (18-β-glycyrrhetinic acid, 10 μM final, 5 mg/ml protein A coated YSi SPA beads, and 1 μg/ml α-cortisol antibody (East Coast Biologics)). The plate is shaken for 120 minutes, and the radioactivity corresponding to ^3H cortisol is measured on a Wallac Microbeta.
Target sequence in this assay (P28845 whole entry, species assumed): as the sequence (P28845 whole entry) above

Molecule | IC50 (human 11β-HSD1 [1]) [nM] | IC50 (human 11β-HSD1 [2]) [nM]
O=C(NC1C2CC3CC(C2)CC1C3)N1CCC2(CC1)CNCc1ccccc12 (centres unmarked) [Example 30, N-(2-Adamantyl)-2,3-dihydro-1H-spiro[isoquinoline-4,4′-piperidine]-1′-carboxamide] | < 50 | < 50
O=C(OC1C2CC3CC(C2)CC1C3)N1CCC2(CC1)OCc1ccccc12 (centres unmarked) [Example 84, 2-Adamantyl 3H-spiro[isobenzofuran-1,4′-piperidine]-1′-carboxylate] | < 50 | < 50
(±)-Ethyl 1′-(cyclohexylcarbamoyl)spiro[chroman-2,4′-piperidine]-4-carboxylate [Example 17] | – | 50 to 1000

Continued, values first:

IC50 (human 11β-HSD1 [1]) [nM] | IC50 (human 11β-HSD1 [2]) [nM] | Molecule
< 50 | < 50 | CC(=O)N1CC2(CCN(C(=O)OC3C4CC5CC(C4)CC3C5)CC2)c2ccccc21 (centres unmarked) [Example 23, 2-Adamantyl 1-acetylspiro[indoline-3,4′-piperidine]-1′-carboxylate]
< 50 | < 50 | CC(=O)N1Cc2ccccc2C2(CCN(C(=O)NC3C4CC5CC(C4)CC3C5)CC2)C1 (centres unmarked) [Example 31, 2-Acetyl-N-(2-adamantyl)-2,3-dihydro-1H-spiro[isoquinoline-4,4′-piperidine]-1′-carboxamide]
< 50 | 50 to 1000 | O=C(O)CCCC(=O)N1Cc2ccccc2C2(CCN(C(=O)NC3C4CC5CC(C4)CC3C5)CC2)C1 (centres unmarked) [Example 95, 5-(1′(2-Adamantylcarbamoyl)-1H-spiro[isoquinoline-4,4′-piperidine]-2(3H)-yl)-5-oxopentanoic acid]
